Source: patent US20260258035A1, “FIVE-MEMBERED AND SIX-MEMBERED NITROGEN-CONTAINING COMPOUND, AND INTERMEDIATE, PREPARATION METHOD AND USE THEREOF” (HANGZHOU SYNRX THERAPEUTICS BIOMEDICAL TECHNOLOGY CO., LTD., priority 2022, published 2026)
In brackets after ≈: the same amount, converted by molar mass. Where two headings read alike, the source gives them in different places.

What was measured:
[1] = Solubility assay (FaSSGF / FaSSIF); format: physicochemical; conditions: kinetic from dmso stock, 2 h at 25° C.
Experimental: 1). Preparation of Solutions:
The FaSSGF solution was prepared as follows: • a) preparation of FaSSGF buffer: dissolve 2.0 g of NaCl as the raw material in about 0.9 L of purified water; • b) adjustment of the pH of the buffer: adjust the pH of the buffer to 1.6 with 1N HCL, and replenish the buffer with purified water to the volume of 1 L; and • c) preparation of FaSSGF solution by addition of FaSSGF powder: add 0.06 g of the FaSSGF powder to about 0.5 L of the buffer, stir until the powder was completely dissolved, and make up for the volume (1 L) with the buffer.
The FaSSIF solution was prepared as follows: • a) preparation of FaSSIF buffer: dissolve 0.42 g of NaOH, 3.44 g of anhydrous NaH2PO4, and 6.19 g of NaCl as raw materials in about 0.9 L of purified water; • b) adjustment the pH of the buffer: adjust the pH of the buffer to 6.5 with 1 N NaOH or 1 N HCL, and replenish the buffer with purified water to the volume of 1 L; and • c) preparation of FaSSIF solution by addition of FaSSIF powder: add 2.24 g of the FaSSIF powder to about 0.5 L of the buffer, stir until the powder was completely dissolved, and make up for the volume (1 L) with the buffer.
2). Preparation of the Solution of Control Compound:
The control compound was weighed and dissolved in DMSO to 10 mM to obtain a stock solution.
3) Preparation of the Solution of Compound to be Tested:
The compound to be tested was formulated into a 10 mM DMSO stock solution.
4) Preparation of Internal Standard Solution:
a) The internal standard was weighed and dissolved in DMSO to 10 mM to obtain an internal standard stock solution (ISTD stock solution).
b) The internal standard stock solution was diluted to 500 nM (Tolbutamide) with an ACN:methano mixture (volume ratio: 1:1) to obtain a quenching solution.
a) The FaSSGF solution at pH 1.6 and the FaSSIF solution at pH 6.5 were pre-warmed; and then, the compound was injected into the buffer.
Once done, the samples were centrifuged at 12,000 rpm for 10 min, and the supernatant was transferred to a new tube. The supernatant was diluted 10-fold and 100-fold with the FaSSGF solution at pH 1.6 or the FaSSIIF solution at pH 6.5. 20 μL of each sample (1×, 10×, 100× and standard curve) was added to 500 μL of the IS solution. The resulting mixture was vortexed vigorously for 1 min and centrifuged at 4,500 rpm for 15 min at 4° C. 150 μL of the supernatant was transferred for LC-MS/MS sample analysis.

HCC1806 = test: Cell viability assay (CellTiter-Glo); format: cell-based, Human; conditions: Homo sapiens, HCC1806, 168 h, HCC1806, 7 days, CellTiter-Glo; read-out: IC50 (nM) in cell viability assay
PARG = PARG (Homo sapiens, UniProt Q86W56); test: Biochemical assay (PARG, TFMU-ADPr substrate); conditions: PARG, TFMU-ADPr substrate
PARG, sequence (Q86W56 whole entry): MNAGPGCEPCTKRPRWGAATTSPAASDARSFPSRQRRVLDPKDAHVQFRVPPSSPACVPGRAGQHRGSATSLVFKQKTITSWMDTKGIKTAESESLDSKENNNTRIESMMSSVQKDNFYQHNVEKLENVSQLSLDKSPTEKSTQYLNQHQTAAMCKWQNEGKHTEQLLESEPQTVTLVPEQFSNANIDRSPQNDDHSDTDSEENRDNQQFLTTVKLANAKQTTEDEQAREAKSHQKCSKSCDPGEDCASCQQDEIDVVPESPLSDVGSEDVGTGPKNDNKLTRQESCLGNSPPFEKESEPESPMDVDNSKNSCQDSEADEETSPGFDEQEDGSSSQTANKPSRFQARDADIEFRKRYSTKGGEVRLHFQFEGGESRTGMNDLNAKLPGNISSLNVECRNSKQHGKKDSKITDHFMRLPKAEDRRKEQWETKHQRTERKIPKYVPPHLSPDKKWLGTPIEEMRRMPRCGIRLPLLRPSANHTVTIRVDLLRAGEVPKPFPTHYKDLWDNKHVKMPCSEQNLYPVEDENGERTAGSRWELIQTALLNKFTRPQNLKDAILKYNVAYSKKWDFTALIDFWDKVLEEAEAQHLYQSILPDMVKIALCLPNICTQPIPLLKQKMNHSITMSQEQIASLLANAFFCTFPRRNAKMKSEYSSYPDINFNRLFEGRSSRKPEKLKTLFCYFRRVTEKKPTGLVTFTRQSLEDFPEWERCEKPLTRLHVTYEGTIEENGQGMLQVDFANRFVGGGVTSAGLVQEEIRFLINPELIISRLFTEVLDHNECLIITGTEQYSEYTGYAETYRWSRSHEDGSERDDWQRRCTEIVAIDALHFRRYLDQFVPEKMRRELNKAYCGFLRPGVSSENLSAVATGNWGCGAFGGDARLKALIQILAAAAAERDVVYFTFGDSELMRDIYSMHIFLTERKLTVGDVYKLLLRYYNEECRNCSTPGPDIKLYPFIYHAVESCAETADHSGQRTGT

PXR = target: T1, PXR (Homo sapiens, UniProt O75469); test: PXR assay (DPX2 luciferase reporter cells); format: cell-based; conditions: 24 h; for PXR Activation @30 uM (% Ctrl): positive control rifampicin
T1 construct: host or cells: DPX2 (HepG2)
T1 sequence (O75469 1-434): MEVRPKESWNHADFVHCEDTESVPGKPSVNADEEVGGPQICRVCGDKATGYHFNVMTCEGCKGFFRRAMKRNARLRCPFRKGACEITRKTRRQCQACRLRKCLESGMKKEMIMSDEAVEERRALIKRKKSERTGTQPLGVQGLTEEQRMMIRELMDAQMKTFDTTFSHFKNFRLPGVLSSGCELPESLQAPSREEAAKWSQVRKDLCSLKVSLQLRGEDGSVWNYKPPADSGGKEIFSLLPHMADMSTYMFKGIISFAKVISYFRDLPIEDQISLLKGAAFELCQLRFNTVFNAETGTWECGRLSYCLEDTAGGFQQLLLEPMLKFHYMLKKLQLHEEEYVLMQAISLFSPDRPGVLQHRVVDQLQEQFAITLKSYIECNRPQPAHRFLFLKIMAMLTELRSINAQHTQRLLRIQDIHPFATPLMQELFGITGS
Experimental: 1) Information of Cell Line
DPX2 (HepG2 cells stably transfected with PXR and luciferase reporter) cells were purchased from Puracyp Inc (Carlsbad, CA).
2) Experimental Procedures a) Reagents and Consumables
The DPX2 cells were cultured in the growth medium containing 1000 fetal bovine serum. The DPX2 cells in a T-75 flask were cultured in the […] incubator at 37° C. with 950% relative humidity, and digested when the cells grew to cover 80-90% of the bottom of the flask.
The surface layer of the T-75 cultured cells was washed with 10 mL of PBS; PBS was pipetted; 3-5 mL of tryp sin was added; the cells were digested at 37° C. for 5 minutes or until the cells were digested to be suspended; and excessive medium containing fetal bovine serum was added to stop trypsinization. The cell suspension was transferred to a conical-bottomed centrifuge tube and centrifuged at 150 g rpm for 5 minutes at room temperature; the supernatant was carefully pipetted; and the cells were resuspended with the treatment medium, with the concentration adjusted to 3.2×10^5 cells/mL (incubation time: 24 hours, plate seeding density: […]). 25 μL of the cell suspension was added to each well of the 384-well cell culture plate.
The cell culture plate was placed and cultured for 24 h in the […] incubator with 9500 humidity at 37° C. c) Formulation of Compound
The stock solution of each of 1000× test compound, the positive control (rifampicin), and the negative control (propranolol) was prepared with DMSO. The final concentrations of the positive control (rifampicin) were 1 μM and 10 μM, and the final concentration of the negative control (propranolol) was 10 μM. The final concentrations of the test compound were 10 μM, 1 μM, 0.1 μM, or EC50 (30 μM, 10 μM, 3 μM, 1 μM, 0.3 μM, 0.1 μM). The final concentration of DMSO was 0.10. The cell culture plate was taken out from the incubator, and 25 nL of the stock solution of the positive control, negative control or test compound was directly added with Echo, each with three parallel concentrations. The cell culture plate was placed in the incubator and continued to be incubated for 24 h. Before starting the assay with the substrate, the cell morphology and the monolayer integrity were checked to ensure that the monolayer was of acceptable research quality. […]
d) Quantitative Detection with PXR Activation
After 24 hours of dosing, the culture could be quantitatively detected with PXR activation. The CellTiter-Fluor™ Cell Viability Assay Kit and One-Glo Luciferase reagent were equilibrated to room temperature. The GF-AFC substrate (10 μL) was added to the assay buffer (10 ml) to develop a 2× reagent, which was then diluted into a 1× reagent with 10 ml of PBS. The ONE-Glo Luciferase substrate was added to the ONE-Glo Luciferase assay buffer. The culture plate was taken out from the incubator; the medium was discarded; 1× of CellTiter-Fluor™ reagent was poured into the loading slot; 25 μL of reagent were added per well to the culture plate with a pipetting workstation; and the culture plate was then incubated in the incubator for 30 minutes. The cell culture plate was taken out from the incubator, and cooled slightly to room temperature; and the fluorescence value was determined with a fully automatic quantitative microplate reader, with the excitation light of 400 nm and the emission light of 505 nm. The ONE-Glo reagent was poured into the loading slot, with 25 μL per well, and the resulting mixture was gently mixed in the plate, and incubated at room temperature for 5 minutes to determine the luminescence value.

[2] = fassgf or other biorelevant, FaSSGF solution pH 1.6, 100 μM from DMSO stock, read-out: FaSSGF solubility
[3] = FaSSIF solution pH 6.5, 100 μM from DMSO stock, read-out: FaSSIF solubility

solubility at 2 h [1, 2] [µM]	solubility at 2 h [1, 3] [µM]	IC50 (HCC1806) [nM]	IC50 (PARG) [nM]	PXR Activation @30 uM (Fold) (PXR)	PXR Activation @30 uM (% Ctrl) (PXR)	SMILES
21.5 (≈ 12.3 µg/mL)	97.2 (≈ 55.6 µg/mL)	565	18.2	–	–	CC1(NS(=O)(=O)c2cc(N3CCN(C(=O)C4CC4)CC3)c3cnc(-c4nnc(C(F)(F)F)s4)n3c2)COC1 [Example 175, 8-(4-(cyclopropanecarbonyl)piperazin-1-yl)-N-(3-methyloxetan-3-yl)-3-(5-(trifluoromethyl)-1,3,4-thiadiazol-2-yl)imidazo[1,5-a]pyridine-6-sulfonamide]
–	–	194	6.55	1.3	9	CN1CCC1(C)C(=O)N1CCN(c2cc(S(=O)(=O)NC3(C)CC3)cn3c(-c4nnc(C(F)(F)F)s4)ncc23)CC1 (stereo not drawn) [Example 330, 8-(4-(1,2-dimethylazetidine-2-carbonyl)piperazin-1-yl)-N-(1-methylcyclopropyl)-3-(5-(trifluoromethyl)-1,3,4-thiadiazol-2-yl)imidazo[1,5-a]pyridine-6-sulfonamide]
–	–	246	20	1.7	10	CN1CC[C@H]1C(=O)N1CCN(c2cc(S(=O)(=O)NC3(C)CC3)cn3c(-c4nnc(C(F)(F)F)s4)ncc23)CC1 [Example 285, (S)-8-(4-(1-methylazetidine-2-carbonyl)piperazin-1-yl)-N-(1-methylcyclopropyl)-3-(5-(trifluoromethyl)-1,3,4-thiadiazol-2-yl)imidazo[1,5-a]pyridine-6-sulfonamide]
–	–	24	0.35	3.2	22	C[C@H]1CN(c2cc(S(=O)(=O)NC3(C)COC3)cn3c(-c4nnc(C(F)F)s4)ncc23)C[C@H](C)N1 [Example 179, 3-(5-(difluoromethyl)-1,3,4-thiadiazol-2-yl)-8-((3S,5S)-3,5-dimethylpiperazin-1-yl)-N-(3-methyloxetan-3-yl)imidazo[1,5-a]pyridine-6-sulfonamide]
–	–	205	4.29	1.8	14	CC1(NS(=O)(=O)c2cc(N3CCN(C(=O)[C@H]4CCCN4)CC3)c3cnc(-c4nnc(C(F)(F)F)s4)n3c2)CC1 [Example 324, (R)-N-(1-methylcyclopropyl)-8-(4-prolylpiperazin-1-yl)-3-(5-(trifluoromethyl)-1,3,4-thiadiazol-2-yl)imidazo[1,5-a]pyridine-6-sulfonamide]
38.5 (≈ 23.3 µg/mL)	88.2 (≈ 53.3 µg/mL)	759	2.54	–	–	CC(C)C(=O)N1CCN(c2cc(S(=O)(=O)NC3(C)COC3)cn3c(-c4nnc(C(F)F)s4)nc(Cl)c23)C[C@H]1C [Example 124, (R)-1-chloro-3-(5-(difluoromethyl)-1,3,4-thiadiazol-2-yl)-8-(4-isobutyryl-3-methylpiperazin-1-yl)-N-(3-methyloxetan-3-yl)imidazo[1,5-a]pyridine-6-sulfonamide]
73.8 (≈ 42 µg/mL)	82.4 (≈ 46.9 µg/mL)	300	5.01	–	–	CN(C)C(=O)N1CCN(c2cc(S(=O)(=O)NC3(C#N)CC3)cn3c(-c4nnc(C(F)(F)F)s4)ncc23)CC1 [Example 227, 4-(6-(N-(1-cyanocyclopropyl)sulfamoyl)-3-(5-(trifluoromethyl)-1,3,4-thiadiazol-2-yl)imidazo[1,5-a]pyridin-8-yl)-N,N-dimethylpiperazine-1-carboxamide]
> 100	97.7 (≈ 59.7 µg/mL)	175	19.1	–	–	CC1(C(=O)N2CCN(c3cc(S(=O)(=O)NC4(C#N)CC4)cn4c(-c5nnc(C(F)(F)F)s5)ncc34)CC2)CCCO1 (stereo not drawn) [Example 298, N-(1-cyanocyclopropyl)-8-(4-(2-methyltetrahydrofuran-2-carbonyl)piperazin-1-yl)-3-(5-(trifluoromethyl)-1,3,4-thiadiazol-2-yl)imidazo[1,5-a]pyridine-6-sulfonamide]
–	–	1080	54.1	0.3	2	CC1(NS(=O)(=O)c2cc(N3CCN(c4ccc[nH]c4=O)CC3)c3cnc(-c4nnc(C(F)(F)F)s4)n3c2)CC1 [Example 336, N-(1-methylcyclopropyl)-8-(4-(2-oxo-1,2-dihydropyridin-3-yl)piperazin-1-yl)-3-(5-(trifluoromethyl)-1,3,4-thiadiazol-2-yl)imidazo[1,5-a]pyridine-6-sulfonamide]
